Test results from patent US11000033B2, “Ketone or oxime compound, and herbicide” (NISSAN CHEMICAL CORPORATION, priority 2014, dated 2021).

Tests used:
Format in all cases: in vivo
wheat [1] = assay: Test Example 5: effect on crop by foliage application, plastic box (symbol e); conditions: 320 g/ha, 3 weeks after application
Procedure, shortened: (§1)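 Crop and weed seeds sown in spots in sterilized diluvial soil in plastic boxes and covered with about 1.5 cm soil. Plants raised in a greenhouse at 25° C. to 30° C. for foliar application.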

Lolium multiflorum Lam. = assay: Test Example 5: herbicidal effect by foliage application, plastic box (symbol K); conditions: 320 g/ha, 3 weeks after application
Procedure, shortened: (§2)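 Effect is rated 3 weeks after a foliar spray of water-diluted emulsion concentrate at a predetermined herbicide amount. Plants had grown 14 days in a 25° C. to 30° C. greenhouse from seed in sterilized diluvial soil.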

Veronica persica = assay: Test Example 5: herbicidal effect by foliage application, plastic box (symbol R); conditions: 320 g/ha, 3 weeks after application
Procedure, shortened: as §2

Digitaria ciliaris = assay: Test Example 4: herbicidal effect by soil treatment (symbol F)
Procedure, shortened: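 Seeds were sown in sterilized diluvial soil, covered with about 1.5 cm of soil, and the soil surface was sprayed with a water-diluted emulsion of the compound at a predetermined rate. Plants grew in a greenhouse at 25° C. to 30° C.; effects were scored visually 3 weeks after application.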

[2] = tested on: Echinochloa oryzacola Vasing.; assay: Test Example 1: herbicidal activity, application before weed generation in submerged conditions (symbol A); conditions: application herbicide amount 320 g/ha
Procedure, shortened: (§3)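 Scores run 0 to 5 by herbicidal ratio, with 5 meaning 90% or more and 0 meaning 5% or lower, read 3 weeks after treatment. Compound was applied as a diluted emulsion to the water surface of submerged alluvial-soil pots on the day weed seeds were sown.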

soybean [3] = assay: Test Example 5: effect on crop by foliage application, plastic box (symbol d); conditions: 320 g/ha, 3 weeks after application
Procedure, shortened: as §1

Amaranthus retroflexus = assay: Test Example 5: herbicidal effect by foliage application, plastic box (symbol N); conditions: 320 g/ha, 3 weeks after application
Procedure, shortened: as §2

Monochoria vaginalis = assay: Test Example 1: herbicidal activity, application before weed generation in submerged conditions (symbol C); conditions: application herbicide amount 320 g/ha
Procedure, shortened: as §3

Chenopodium album = assay: Test Example 5: herbicidal effect by foliage application, plastic box (symbol O); conditions: 320 g/ha, 3 weeks after application
Procedure, shortened: as §2

wheat [4] = assay: Test Example 4: effect on crop by soil treatment (symbol e); conditions: for e: wheat, effect grade on crop: 320 g/ha
Procedure, shortened: (§4)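 The test used sterilized diluvial soil. Seed was set down in spots and overlaid with about 1.5 cm of soil before growth in a greenhouse kept at 25° C. to 30° C.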

soybean [5] = assay: Test Example 4: effect on crop by soil treatment (symbol d); conditions: for d: soybean, effect grade on crop: 320 g/ha
Procedure, shortened: as §4

rapeseed = assay: Test Example 4: effect on crop by soil treatment (symbol g); conditions: for g: rapeseed, effect grade on crop: 320 g/ha
Procedure, shortened: as §4

[6] = tested on: Echinochloa crus-galli var. crus-galli; assay: Test Example 5: herbicidal effect by foliage application, plastic box (symbol H); conditions: 320 g/ha, 3 weeks after application
Procedure, shortened: as §2

Galium spurium = assay: Test Example 5: herbicidal effect by foliage application, plastic box (symbol Q); conditions: 320 g/ha, 3 weeks after application
Procedure, shortened: as §2

[7] = tested on: directly sowed rice plant; assay: Test Example 3: effect on crop by foliage application, Wagner pot (symbol b); conditions: application herbicide amount 320 g/ha; for b (directly sowed rice plant) effect on crop grade: Table 24
Procedure, shortened: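 Plants are raised from seed in flooded paddy conditions: water stands 0.1–0.5 cm over alluvial soil, and the pot is kept in a greenhouse at 25–30 °C. Species sown are barnyardgrass (E. crus-galli var. crus-galli), Leptochloa chinensis, Cyperus difformis and rice.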

beet = assay: Test Example 5: effect on crop by foliage application, plastic box (symbol f); conditions: 320 g/ha, 3 weeks after application
Procedure, shortened: as §1

[8] = application herbicide amount 320 g/ha

Row | SMILES | e: wheat, effect on crop grade (wheat [1]) | K: Lolium multiflorum Lam., herbicidal effect grade (Lolium multiflorum Lam.) | R: Veronica persica, herbicidal effect grade (Veronica persica) | A (Echinochloa oryzacola Vasing.) herbicidal effect grade [2] | d: soybean, effect on crop grade (soybean [3]) | N: Amaranthus retroflexus, herbicidal effect grade (Amaranthus retroflexus) | C (Monochoria vaginalis) herbicidal effect grade (Monochoria vaginalis) | O: Chenopodium album, herbicidal effect grade (Chenopodium album) | H: Echinochloa crus-galli var. crus-galli, herbicidal effect grade [6] | Q: Galium spurium, herbicidal effect grade (Galium spurium) | b (directly sowed rice plant) effect on crop grade [7] | f: beet, effect on crop grade (beet) | e: wheat, effect on crop (criteria 0-5) (wheat [1]) | K: Lolium multiflorum Lam., herbicidal effect (criteria 0-5) (Lolium multiflorum Lam.) | R: Veronica persica, herbicidal effect (criteria 0-5) (Veronica persica) | F: Digitaria ciliaris, herbicidal effect grade (Digitaria ciliaris; 320 g/ha) | Herbicidal effect grade, A: Echinochloa oryzacola Vasing. [2] | d: soybean, effect on crop (criteria 0-5) (soybean [3]) | N: Amaranthus retroflexus, herbicidal effect (criteria 0-5) (Amaranthus retroflexus) | Herbicidal effect grade, C: Monochoria vaginalis (Monochoria vaginalis) | also measured
1 | CCC(CC1CC(O)=C(c2c(C)cc(Br)cc2OC)C1=O)=NOC (mixture of isomers) [13-001] | 5 (Herbicidal ratio of 90% or more (almost completely withered)) | 5 (Herbicidal ratio of 90% or more (almost completely withered)) | 0 (Herbicidal ratio of 5% or lower (almost no effect)) | 5 (Herbicidal ratio of 90% or more (almost completely withered)) | 0 (Herbicidal ratio of 5% or lower (almost no effect)) | 0 (Herbicidal ratio of 5% or lower (almost no effect)) | 0 (Herbicidal ratio of 5% or lower (almost no effect)) | 0 (Herbicidal ratio of 5% or lower (almost no effect)) | 5 (Herbicidal ratio of 90% or more (almost completely withered)) | 0 (Herbicidal ratio of 5% or lower (almost no effect)) | 5 (Herbicidal ratio of 90% or more (almost completely withered)) | 0 (Herbicidal ratio of 5% or lower (almost no effect)) | – | – | – | – | – | – | – | – | F: Digitaria ciliaris, herbicidal effect grade (Digitaria ciliaris; [8]): 5 (Herbicidal ratio of 90% or more (almost completely withered)); e: wheat, effect on crop grade (wheat [4]; [8]): 0 (Herbicidal ratio of 5% or lower (almost no effect)); d: soybean, effect on crop grade (soybean [5]; [8]): 0 (Herbicidal ratio of 5% or lower (almost no effect)); g: rapeseed, effect on crop grade (rapeseed; [8]): 0 (Herbicidal ratio of 5% or lower (almost no effect))
2 | CC(CC1CC(O)=C(c2c(C)cc(C)cc2C)C1=O)=NOCc1cccc(Cl)c1 (stereo not shown) [1-114] | – | – | – | – | – | – | – | – | – | – | – | – | 4 (Herbicidal ratio of 70% or higher and lower than 90%) | 5 (Herbicidal ratio of 90% or more (almost completely withered)) | 2 (Herbicidal ratio of 20% or higher and lower than 40%) | 5 (Herbicidal ratio of 90% or more (almost completely withered)) | 5 (Herbicidal ratio of 90% or more (almost completely withered)) | 0 (Herbicidal ratio of 5% or lower (almost no effect)) | 1 (Herbicidal ratio of 5% or higher and lower than 20%) | 5 (Herbicidal ratio of 90% or more (almost completely withered)) | O: Chenopodium album, herbicidal effect (criteria 0-5) (Chenopodium album): 3 (Herbicidal ratio of 40% or higher and lower than 70%); e: wheat, effect grade on crop (wheat [4]): 0 (Herbicidal ratio of 5% or lower (almost no effect)); d: soybean, effect grade on crop (soybean [5]): 0 (Herbicidal ratio of 5% or lower (almost no effect)); g: rapeseed, effect grade on crop (rapeseed): 1 (Herbicidal ratio of 5% or higher and lower than 20%); H: Echinochloa crus-galli var. crus-galli, herbicidal effect (criteria 0-5) [6]: 5 (Herbicidal ratio of 90% or more (almost completely withered)); Q: Galium spurium, herbicidal effect (criteria 0-5) (Galium spurium): 0 (Herbicidal ratio of 5% or lower (almost no effect)); effect on crop b (directly sowed rice plant), grade 0-5 [7]: 5 (Herbicidal ratio of 90% or more (almost completely withered)); f: beet, effect on crop (criteria 0-5) (beet): 0 (Herbicidal ratio of 5% or lower (almost no effect))
3 | CC(CC1CC(OC(=O)COc2ccccc2)=C(c2c(C)cc(-c3ccc(Cl)cc3)cc2C)C1=O)=NOCC(F)(F)F (mixture of isomers) [9-027] | 4 (Herbicidal ratio of 70% or higher and lower than 90%) | 5 (Herbicidal ratio of 90% or more (almost completely withered)) | 2 (Herbicidal ratio of 20% or higher and lower than 40%) | 5 (Herbicidal ratio of 90% or more (almost completely withered)) | 0 (Herbicidal ratio of 5% or lower (almost no effect)) | 0 (Herbicidal ratio of 5% or lower (almost no effect)) | 1 (Herbicidal ratio of 5% or higher and lower than 20%) | 2 (Herbicidal ratio of 20% or higher and lower than 40%) | 5 (Herbicidal ratio of 90% or more (almost completely withered)) | 3 (Herbicidal ratio of 40% or higher and lower than 70%) | 3 (Herbicidal ratio of 40% or higher and lower than 70%) | 0 (Herbicidal ratio of 5% or lower (almost no effect)) | – | – | – | – | – | – | – | – | Herbicidal effect grade, F: Digitaria ciliaris (Digitaria ciliaris; [8]): 5 (Herbicidal ratio of 90% or more (almost completely withered)); Effect on crop grade, e: wheat (wheat [4]; [8]): 2 (Herbicidal ratio of 20% or higher and lower than 40%); Effect on crop grade, d: soybean (soybean [5]; [8]): 0 (Herbicidal ratio of 5% or lower (almost no effect)); Effect on crop grade, g: rapeseed (rapeseed; [8]): 1 (Herbicidal ratio of 5% or higher and lower than 20%)
4 | CC(CC1CC(O)=C(c2c(C)cc(C)cc2C)C1=O)=NOCCS(C)(=O)=O (stereo not shown) [1-110] | – | – | – | – | – | – | – | – | – | – | – | – | 5 (Herbicidal ratio of 90% or more (almost completely withered)) | 5 (Herbicidal ratio of 90% or more (almost completely withered)) | 3 (Herbicidal ratio of 40% or higher and lower than 70%) | 5 (Herbicidal ratio of 90% or more (almost completely withered)) | 3 (Herbicidal ratio of 40% or higher and lower than 70%) | 0 (Herbicidal ratio of 5% or lower (almost no effect)) | 0 (Herbicidal ratio of 5% or lower (almost no effect)) | 0 (Herbicidal ratio of 5% or lower (almost no effect)) | O: Chenopodium album, herbicidal effect (criteria 0-5) (Chenopodium album): 2 (Herbicidal ratio of 20% or higher and lower than 40%); e: wheat, effect grade on crop (wheat [4]): 5 (Herbicidal ratio of 90% or more (almost completely withered)); d: soybean, effect grade on crop (soybean [5]): 0 (Herbicidal ratio of 5% or lower (almost no effect)); g: rapeseed, effect grade on crop (rapeseed): 1 (Herbicidal ratio of 5% or higher and lower than 20%); H: Echinochloa crus-galli var. crus-galli, herbicidal effect (criteria 0-5) [6]: 5 (Herbicidal ratio of 90% or more (almost completely withered)); Q: Galium spurium, herbicidal effect (criteria 0-5) (Galium spurium): 3 (Herbicidal ratio of 40% or higher and lower than 70%); effect on crop b (directly sowed rice plant), grade 0-5 [7]: 5 (Herbicidal ratio of 90% or more (almost completely withered)); f: beet, effect on crop (criteria 0-5) (beet): 0 (Herbicidal ratio of 5% or lower (almost no effect))
